{"source": "paper PMC12150293", "about": "(RSC Advances, 2025)", "key": {"[1]": {"system": "TGF", "assay": "mRNA expression", "type": "cell-based, human", "settings": "MDA-MB-231 cells; reduction to"}, "[2]": {"system": "caspase-9", "assay": "Caspase-9 activation assay", "type": "cell-based, human", "settings": "A549 cells, compound at its IC50 concentration, 48 h"}, "[3]": {"system": "CD-133", "assay": "mRNA expression", "type": "cell-based, human", "settings": "MDA-MB-231 cells; reduction to"}, "[4]": {"system": "miRNA-132", "assay": "miRNA-132 expression in MDA-MB-231 cells", "type": "cell-based, human", "settings": "elevation"}, "[5]": {"system": "caspase-3", "assay": "Caspase-3 activation assay", "type": "cell-based, human", "settings": "A549 cells, compound at its IC50 concentration, 48 h"}, "[6]": {"system": "TGF", "assay": "mRNA expression", "type": "cell-based, human", "settings": "A549 cells"}, "[7]": {"system": "miRNA-200c", "assay": "miRNA-200c expression in MDA-MB-231 cells", "type": "cell-based, human", "settings": "elevation"}, "[8]": {"system": "A549 cells", "assay": "MTT cytotoxicity assay on non-small cell lung cancer cells"}, "[9]": {"system": "CD-44", "assay": "mRNA expression", "type": "cell-based, human", "settings": "MDA-MB-231 cells; reduction to"}, "[10]": {"system": "VEGF", "assay": "mRNA expression", "type": "cell-based, human", "settings": "MDA-MB-231 cells; reduction to"}, "[11]": {"system": "miRNA-200c", "assay": "miRNA-200c expression in A549 cells", "type": "cell-based, human", "settings": "enhancement"}, "[12]": {"system": "MDA-MB-231 cells", "assay": "MTT cytotoxicity assay on breast cancer cells"}, "[13]": {"system": "BEAS-2B cells", "assay": "MTT cytotoxicity assay on normal human lung epithelial cells", "settings": "48 h, read-out: BEAS-2B IC50"}, "[14]": {"system": "c-Myc", "assay": "mRNA expression", "type": "cell-based, human", "settings": "A549 cells"}, "[15]": {"target": "EGFR^WT (Homo sapiens, UniProt P00533)", "sequence (P00533 25-1210)": "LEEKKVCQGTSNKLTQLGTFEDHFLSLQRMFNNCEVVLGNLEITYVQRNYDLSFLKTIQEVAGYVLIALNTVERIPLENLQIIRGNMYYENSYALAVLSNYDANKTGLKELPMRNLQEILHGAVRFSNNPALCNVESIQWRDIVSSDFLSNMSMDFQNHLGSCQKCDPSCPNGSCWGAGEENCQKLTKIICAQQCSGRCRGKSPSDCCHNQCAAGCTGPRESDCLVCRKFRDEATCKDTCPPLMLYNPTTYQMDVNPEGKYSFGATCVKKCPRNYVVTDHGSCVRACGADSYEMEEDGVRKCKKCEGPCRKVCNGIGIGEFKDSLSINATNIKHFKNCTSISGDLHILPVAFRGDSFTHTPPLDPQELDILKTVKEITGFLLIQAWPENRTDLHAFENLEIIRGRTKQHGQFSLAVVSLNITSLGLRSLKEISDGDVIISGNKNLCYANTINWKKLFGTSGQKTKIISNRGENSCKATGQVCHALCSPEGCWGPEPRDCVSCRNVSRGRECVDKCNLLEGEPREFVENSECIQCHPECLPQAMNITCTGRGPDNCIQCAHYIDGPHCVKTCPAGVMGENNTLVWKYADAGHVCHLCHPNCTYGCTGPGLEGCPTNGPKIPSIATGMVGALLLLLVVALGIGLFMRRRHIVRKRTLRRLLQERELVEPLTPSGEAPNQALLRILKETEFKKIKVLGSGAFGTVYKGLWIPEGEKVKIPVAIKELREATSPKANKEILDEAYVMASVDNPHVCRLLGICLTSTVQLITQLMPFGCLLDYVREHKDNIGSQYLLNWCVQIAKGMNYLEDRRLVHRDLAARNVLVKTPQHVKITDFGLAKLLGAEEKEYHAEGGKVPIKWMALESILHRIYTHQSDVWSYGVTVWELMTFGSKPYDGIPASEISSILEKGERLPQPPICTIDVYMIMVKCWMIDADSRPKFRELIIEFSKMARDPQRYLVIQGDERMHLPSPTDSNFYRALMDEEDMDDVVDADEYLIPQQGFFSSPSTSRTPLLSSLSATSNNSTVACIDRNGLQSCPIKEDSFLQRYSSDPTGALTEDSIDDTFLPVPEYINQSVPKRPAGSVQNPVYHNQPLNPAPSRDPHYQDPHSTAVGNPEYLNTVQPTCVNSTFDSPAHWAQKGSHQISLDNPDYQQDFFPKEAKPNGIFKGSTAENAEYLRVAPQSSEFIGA", "assay": "EGFR^WT kinase inhibition assay", "type": "biochemical"}, "[16]": {"system": "miRNA-132", "assay": "miRNA-132 expression in A549 cells", "type": "cell-based, human", "settings": "enhancement"}, "[17]": {"system": "c-Myc", "assay": "mRNA expression", "type": "cell-based, human", "settings": "MDA-MB-231 cells; reduction to"}, "[18]": {"target": "EGFR^L858R/T790M/C797S (Homo sapiens, UniProt P00533, C797S/L858R/T790M)", "sequence (P00533 25-1210 T790M/C797S/L858R)": "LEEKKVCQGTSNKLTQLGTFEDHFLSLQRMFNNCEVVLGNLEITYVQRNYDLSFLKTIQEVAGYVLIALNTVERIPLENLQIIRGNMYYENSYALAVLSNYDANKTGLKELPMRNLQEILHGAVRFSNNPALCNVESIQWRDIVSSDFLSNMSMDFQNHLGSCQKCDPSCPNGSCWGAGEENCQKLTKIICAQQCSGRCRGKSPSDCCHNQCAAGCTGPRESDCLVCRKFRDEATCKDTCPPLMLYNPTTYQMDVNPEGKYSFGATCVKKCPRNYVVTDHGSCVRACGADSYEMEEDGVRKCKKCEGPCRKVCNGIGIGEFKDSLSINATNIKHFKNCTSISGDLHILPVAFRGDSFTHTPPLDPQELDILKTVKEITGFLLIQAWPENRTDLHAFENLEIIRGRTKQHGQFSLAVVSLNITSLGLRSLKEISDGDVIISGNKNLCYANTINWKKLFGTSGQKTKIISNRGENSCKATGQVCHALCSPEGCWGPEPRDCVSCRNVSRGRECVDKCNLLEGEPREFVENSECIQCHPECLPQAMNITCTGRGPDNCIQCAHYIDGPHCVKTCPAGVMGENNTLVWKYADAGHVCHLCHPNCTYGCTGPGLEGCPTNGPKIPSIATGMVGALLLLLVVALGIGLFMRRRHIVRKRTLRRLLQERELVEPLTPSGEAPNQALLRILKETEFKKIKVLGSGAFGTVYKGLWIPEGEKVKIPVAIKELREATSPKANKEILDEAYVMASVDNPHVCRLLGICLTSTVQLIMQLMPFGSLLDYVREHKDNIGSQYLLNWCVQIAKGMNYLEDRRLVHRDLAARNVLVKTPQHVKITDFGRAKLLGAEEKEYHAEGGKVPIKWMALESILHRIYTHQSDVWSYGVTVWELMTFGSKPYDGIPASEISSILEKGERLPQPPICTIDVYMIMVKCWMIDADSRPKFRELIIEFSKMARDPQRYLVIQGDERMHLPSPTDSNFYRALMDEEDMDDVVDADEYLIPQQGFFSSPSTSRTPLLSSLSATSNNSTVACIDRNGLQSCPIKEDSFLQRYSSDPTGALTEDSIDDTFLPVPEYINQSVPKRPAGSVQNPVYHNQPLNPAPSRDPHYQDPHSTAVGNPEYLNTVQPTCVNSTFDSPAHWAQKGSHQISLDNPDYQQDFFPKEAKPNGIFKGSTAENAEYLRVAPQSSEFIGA", "assay": "biochemical"}}, "data": [{"smiles": "O=C(Nc1ccc([N+](=O)[O-])cc1)C(c1ccc(C(F)(F)F)cc1)N(C(=O)c1ccccc1Cl)c1ccccc1", "note": "(centres unmarked) [Compound 5, 2-Chloro-N-(2-((4-nitrophenyl)amino)-2-oxo-1-(4-(trifluoromethyl)phenyl)ethyl)-N-phenylbenzamide]", "values": [{"measurement": "expression of TGF compared to untreated control", "setting": "[1]", "value": 0.4, "unit": "fold"}, {"measurement": "upregulation of caspase-9 compared to the untreated control", "setting": "[2]", "value": 2.3, "unit": "folds"}, {"measurement": "expression of CD-133 compared to untreated control", "setting": "[3]", "value": 0.7, "unit": "fold"}, {"measurement": "miRNA-132 expression, fold change compared to control", "setting": "[4]", "value": 3.8, "unit": "fold"}, {"measurement": "upregulation of caspase-3 compared to the untreated control", "setting": "[5]", "value": 1.8, "unit": "folds"}, {"measurement": "fold reduction in the expression of TGF in comparison to untreated control", "setting": "[6]", "value": 0.69, "unit": "fold"}, {"measurement": "miRNA-200c expression, fold change compared to control", "setting": "[7]", "value": 3.1, "unit": "fold"}, {"measurement": "fold more potent than 5-FU", "setting": "[8]; A549 cells, ratio of IC50 values", "value": 1.82, "unit": "fold"}, {"measurement": "IC50", "setting": "[8]; Homo sapiens, A549, 48 h, read-out: A549 IC50", "value": "6.2 ± 0.3", "unit": "µM"}, {"measurement": "expression of CD-44 compared to untreated control", "setting": "[9]", "value": 0.5, "unit": "fold"}, {"measurement": "expression of VEGF compared to untreated control", "setting": "[10]", "value": 0.5, "unit": "fold"}, {"measurement": "miRNA-200c expression, fold change compared to control", "setting": "[11]", "value": 1.9, "unit": "fold"}, {"measurement": "IC50", "setting": "[12]; Homo sapiens, MDA-MB-231, 48 h, read-out: MDA-MB-231 IC50", "value": "10.1 ± 0.6", "unit": "µM"}, {"measurement": "fold more potent than 5-FU", "setting": "[12]; MDA-MB-231 cells, ratio of IC50 values", "value": 1.42, "unit": "fold"}, {"measurement": "IC50", "setting": "[13]", "value": "70.4 ± 5.1", "unit": "µM"}, {"measurement": "fold reduction in the expression of c-Myc in comparison to untreated control", "setting": "[14]", "value": 0.41, "unit": "fold"}, {"measurement": "IC50", "setting": "[15]", "value": "0.0021 ± 1e-05", "unit": "µM"}, {"measurement": "miRNA-132 expression, fold change compared to control", "setting": "[16]", "value": 2.4, "unit": "fold"}, {"measurement": "expression of c-Myc compared to untreated control", "setting": "[17]", "value": 0.36, "unit": "fold"}, {"measurement": "IC50", "setting": "[18]", "value": "0.19 ± 0.05", "unit": "µM"}]}]}
